From US20240358767A1, “STEM CELL DIFFERENTIATION AND CHEMICAL COMPOUNDS” (VERTEX PHARMACEUTICALS INCORPORATED, priority 2021, published 2024)
Where “and” joins values, the source holds several entries; their conditions need not be identical. Equal entries are not always repeated. Where two headings read alike, the source gives them in different places.

What was measured:
Stem cells [1] = test: 384-well screen of small molecule compounds for Stage 1 differentiation to Sox17-positive definitive endoderm cells (immunostaining, DAPI); conditions: for Relative to 100 ng/mL AA (percentage of Sox17-positive cells normalized by the percentage with 100 ng/mL AA): Stage 1 condition with 10 ng/mL AA and the test compound, 384-well plates; for signal in Oct 4 channel / signal in Sox17 channel: 10 ng/mL AA plus test compound, about 8 concentrations, dose-responsive manner; for nuclear blebbing in the resulting cell population: visual inspection
EZH2 = EZH2 (Homo sapiens, UniProt Q15910); conditions: cited from earlier work
Stem cells [2] = test system: Stem cells
human stem cells [3] = test: Version A differentiation, flow cytometry of Nkx6.1 and Isl1 on day 7 of Stage 6 (S6d7); type: cell-based; conditions: for Markers on S6d7 Isl1 + /Nkx6.1+ / Markers on S6d7 Isl1 + /Nkx6.1−: 10% AA plus the compound(s) at Stage 1
Description: (§1) An exemplary base differentiation protocol, Version A, according to the present disclosure, was used for differentiating human stem cells into mature β cells capable of releasing insulin in response to glucose challenge in vitro.
(§2) Version A protocol is a 6-stage stepwise protocol. With Version A protocol, stem cells were treated with reagents in a manner similar to the Version A described in Example 1 of U.S. Patent Publication No. US20220090020A1, which is incorporated by reference herein in its entirety. In some experiments, Version A was modified such that 100 ng/mL Activin A at Stage 1 was replaced with a different concentration of Activin A as described below.
(§3) In one experiment, differentiation of the stem cells was initiated in spinner flasks using Version A protocol, and three different concentrations of Activin A (“AA”), 100 ng/mL (100%), 10 ng/mL (10%), and 5 ng/mL (5%), applied throughout the three days of Stage 1 were tested, while the remaining differentiation steps were kept the same. On QC days, e.g., upon completion of Stage 1 (“S1C”), completion of Stage 3 (“S3C”), or completion of Stage 5 (“S5C”), the cells were examined for their morphology and cell constituents. Specifically, 5 mL of cell cluster suspension solution were taken from the spinner flask, with 1 mL suspension aliquoted into a 24 well plate. Pictures of the cell clusters in the 24-well plate were taken under brightfield microscope. The cell clusters in the remaining 4 mL suspension were dispersed with TrypLE Express (Life Technologies; 12,604,013) at 37° C. for 20 min, fixed with 4% PFA for 20 mins at 4° C., blocked for 1 hour in FACS buffer (5% Donkey Serum and 0.05% Triton-100 in PBS) at room temperature, and stained with various antibodies against cell markers. Stained cells were then measured using an Accuri 6 flow cytometer (BD Biosciences) and analyzed using FlowJo software.
(§4) In one experiment, six different conditions for Stage 1 differentiation were tested: 100% Activin A, 10% Activin A, 10% Activin A plus GSK-690693, 10% Activin A plus BYL719, 10% Activin A plus GSK-690693 and BYL719, or 100% Activin A plus GSK-690693 and BYL719. Characterization of cell morphology and cell constituents were conducted similarly as described in EXAMPLE 1. FIGS. 2A-5E and Table 4 summarize the characterizations of the cells obtained under the six differentiation conditions at different stages.
In another experiment, the effects of the aforementioned six different conditions for Stage 1 differentiation on Stage 6 differentiation were tested under two Stage 6 medium regimens: regimen 1 (Table 5) and regimen 2 (Table 6).

human stem cells [4] = test: Version A differentiation, flow cytometry of Pdx1, Cdx2 and Sox2 at completion of Stage 3 (S3C); type: cell-based
Description: as §1, §2, §3
(§5) In one experiment, four different conditions for Stage 1 differentiation were tested: 100% Activin A, 10% Activin A, 10% Activin A plus GSK-690693 (“GSK”), or 10% Activin A plus BYL719 (“BYL”). Characterization of cell morphology and cell constituents were conducted similarly as described in EXAMPLE 1. The experiment was repeated for four times. Table 3 summarizes the quantification of flow cytometry analysis results at S1C, S3C, and S5C, and total viable cell yield at S5C for the four runs. In all the four runs, 0.1 μM […] or 0.04 μM BYL719 was applied for 3 days of Stage 1, except that in the last two runs, Run 4 and Run 5, 0.04 μM of BYL719 was applied for only 2 days (days S1d1 and S1d2).
as §4

human stem cells [5] = test: Version A differentiation, flow cytometry of Nkx6.1 and Isl1 at completion of Stage 5 (S5C); type: cell-based
Description: as §1, §2, §3, §5, §4

human stem cells [6] = test: Stage 1 differentiation of stem cells (Version A protocol), flow cytometry of Oct4 and Sox17 at completion of Stage 1 (S1C); type: cell-based
Description: as §1, §2, §3
In another experiment, a dose-response test was conducted to examine the effects of different concentrations of Activin A at Stage 1 on stem cell differentiation. Five different concentrations of Activin A were tested: 100 ng/mL (100%), 20 ng/mL (20%), 10 ng/mL (10%), 5 ng/mL (5%), and 0 ng/mL (0%).
as §5, §4

human stem cells [7] = test: Total viable cell yield at S5C; type: cell-based; conditions: 0.1 μM GSK for 3 days of Stage 1 plus 10% AA, Runs 4-5, listed as GSK
Description: as §1, §2, §5

[8] = 0.1 μM GSK for 3 days of Stage 1 plus 10% AA (10 ng/mL Activin A), Runs 3-5, listed as GSK
[9] = 10% AA (10 ng/mL Activin A) plus the compound(s) at Stage 1

Chain of EZH2 (Q15910 whole entry, species assumed): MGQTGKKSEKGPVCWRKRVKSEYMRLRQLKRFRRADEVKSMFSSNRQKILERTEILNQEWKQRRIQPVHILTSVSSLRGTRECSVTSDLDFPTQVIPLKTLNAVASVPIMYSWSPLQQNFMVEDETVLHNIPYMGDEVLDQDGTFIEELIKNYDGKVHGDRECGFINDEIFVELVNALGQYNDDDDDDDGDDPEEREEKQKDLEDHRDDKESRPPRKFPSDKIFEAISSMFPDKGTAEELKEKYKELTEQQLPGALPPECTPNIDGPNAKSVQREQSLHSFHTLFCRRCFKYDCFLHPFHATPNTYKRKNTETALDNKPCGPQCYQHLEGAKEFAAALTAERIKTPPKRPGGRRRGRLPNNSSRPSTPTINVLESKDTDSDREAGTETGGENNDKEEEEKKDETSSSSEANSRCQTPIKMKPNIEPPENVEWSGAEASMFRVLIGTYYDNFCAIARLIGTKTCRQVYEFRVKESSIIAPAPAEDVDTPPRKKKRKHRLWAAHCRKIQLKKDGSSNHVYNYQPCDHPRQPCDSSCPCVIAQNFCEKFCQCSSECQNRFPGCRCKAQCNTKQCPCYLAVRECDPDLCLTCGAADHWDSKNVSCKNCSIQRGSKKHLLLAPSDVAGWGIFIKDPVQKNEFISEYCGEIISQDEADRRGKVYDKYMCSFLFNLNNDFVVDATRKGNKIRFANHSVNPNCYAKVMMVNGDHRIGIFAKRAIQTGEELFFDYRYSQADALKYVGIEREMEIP
Chain of EZH2 (O75530 whole entry partner, species assumed): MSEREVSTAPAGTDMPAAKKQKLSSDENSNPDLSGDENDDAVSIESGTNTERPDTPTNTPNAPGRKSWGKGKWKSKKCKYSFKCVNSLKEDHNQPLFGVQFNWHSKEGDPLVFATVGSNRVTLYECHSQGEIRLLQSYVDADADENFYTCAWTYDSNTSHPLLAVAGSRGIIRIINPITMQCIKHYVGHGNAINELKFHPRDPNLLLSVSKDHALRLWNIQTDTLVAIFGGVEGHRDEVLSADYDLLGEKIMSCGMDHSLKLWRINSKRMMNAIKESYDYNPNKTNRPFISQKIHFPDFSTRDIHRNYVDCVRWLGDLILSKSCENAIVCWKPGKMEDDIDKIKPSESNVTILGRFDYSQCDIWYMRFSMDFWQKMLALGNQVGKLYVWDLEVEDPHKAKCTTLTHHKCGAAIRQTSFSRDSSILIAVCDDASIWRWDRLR
Chain of EZH2 (Q15022 whole entry partner, species assumed): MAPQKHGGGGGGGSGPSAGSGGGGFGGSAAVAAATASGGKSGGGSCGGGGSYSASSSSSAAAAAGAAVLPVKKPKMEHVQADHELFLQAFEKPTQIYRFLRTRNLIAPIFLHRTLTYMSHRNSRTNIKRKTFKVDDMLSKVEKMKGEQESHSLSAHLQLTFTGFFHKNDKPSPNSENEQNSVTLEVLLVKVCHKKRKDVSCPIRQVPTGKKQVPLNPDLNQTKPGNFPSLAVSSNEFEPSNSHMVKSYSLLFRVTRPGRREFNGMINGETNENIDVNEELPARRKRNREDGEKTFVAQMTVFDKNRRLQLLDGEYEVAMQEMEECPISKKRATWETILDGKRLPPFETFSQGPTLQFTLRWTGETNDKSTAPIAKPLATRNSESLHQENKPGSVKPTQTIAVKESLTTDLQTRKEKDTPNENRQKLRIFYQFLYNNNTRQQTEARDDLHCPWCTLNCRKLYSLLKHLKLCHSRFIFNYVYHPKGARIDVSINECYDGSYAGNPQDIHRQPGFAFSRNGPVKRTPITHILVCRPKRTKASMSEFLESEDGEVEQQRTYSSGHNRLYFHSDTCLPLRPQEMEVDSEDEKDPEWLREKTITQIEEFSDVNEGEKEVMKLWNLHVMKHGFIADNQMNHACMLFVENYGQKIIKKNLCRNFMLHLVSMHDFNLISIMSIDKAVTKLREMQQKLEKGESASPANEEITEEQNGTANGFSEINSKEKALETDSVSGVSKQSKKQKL

| nuclear blebbing in the resulting cell population (Stem cells [1]) | SMILES | Relative to 100 ng/mL AA (percentage of Sox17-positive cells normalized by the percentage with 100 ng/mL AA) (Stem cells [1]) | signal in Oct 4 channel (Stem cells [1]) | signal in Sox17 channel (Stem cells [1]) | further results |
| --- | --- | --- | --- | --- | --- |
|  | O=C(c1ccc(-c2nc3ccc(F)cc3o2)cc1)N1CCN(C(=O)C2(O)CC2)CC1 [FT113] | 64% |  |  |  |
|  | Cc1c(CN2CCN(C(=O)[C@H](C)O)CC2)sc2c(N3CCOCC3)nc(-c3cnc(N)nc3)nc12 [Apitolisib] | 168% |  |  |  |
|  | CC[C@H](C)n1cc(C)c2c(C(=O)NCc3c(C)cc(C)[nH]c3=O)cc(-c3ccc(N4CCNCC4)nc3)cc21 [GSK126] |  |  |  | selectivity over EZH1 (EZH2; EZH2 vs EZH1): 150 fold |
| not to induce | CCN1CCN(Cc2ccc(C(=O)Nc3ccc(C)c(Oc4ccc5c(c4)CC(=O)N5)c3)cc2C(F)(F)F)CC1 [DDR1-IN-1] | 120% | decrease | increase |  |
|  | Nc1ccc(C(=O)Nc2cccc(-c3nc(N4CCOCC4)c4oc5ncccc5c4n3)c2)cn1 [YM201636] |  | decrease | increase |  |
|  | O=C(Nc1cccc2cccnc12)c1ccc(N2C(=O)[C@@H]3[C@H](C2=O)[C@@H]2C=C[C@H]3C2)cc1 [IWR-1-endo] |  | decrease | increase | nuclear blebbing in the resulting cell population (Stem cells [2]): not to induce |
| not to induce | Cc1c(CN2CCN(S(C)(=O)=O)CC2)sc2c(N3CCOCC3)nc(-c3cnc(N)nc3)nc12 [GNE-477] | 160% | decrease | increase |  |
|  | Cc1nc2c(-c3cnc(N)nc3)nc(N3CCOCC3)nc2n1C(C)C [VS-5584] |  |  |  | nuclear blebbing in the resulting cell population (Stem cells [2]): not to induce |
| not to induce | Nc1nc(-c2nn(Cc3ccccc3F)c3ncccc23)ncc1C1CC1 [BAY 41-2272] | 145% | decrease | increase |  |
| not to induce | COc1ccc(-c2sc(NC(=O)C(C)(C)C)nc2C)cc1S(=O)(=O)Nc1ccc(O)cc1 [PI4KIIIbeta-IN-10] |  | decrease | increase |  |
| not to induce | CC(C)N1CCN(Cc2cnc(-c3cc(-c4cccc5[nH]ccc45)cc4[nH]ncc34)o2)CC1 [Nemiralisib] |  | decrease | increase |  |
| not to induce | COc1ccc(-c2ccc3c(N4CCOC[C@@H]4C)nc(N4CCOC[C@@H]4C)nc3n2)cc1CO [AZD8055] | 117% | decrease | increase |  |
| not to induce | CC(C)n1c([C@H](C)Nc2ncnc(N)c2C#N)cc2cccc(-c3ccc(=O)n(C)c3)c2c1=O [IPI-3063] | 130% | decrease | increase |  |
|  | CCCc1cc(C)[nH]c(=O)c1CNC(=O)c1cc(-c2ccc(N3CCN(C(C)C)CC3)nc2)cc2c1cnn2C(C)C [UNC1999] |  |  |  | selectivity compared with GSK126 (EZH2): less selective |
| not to induce | CCn1c(-c2nonc2N)nc2c(C#CC(C)(C)O)ncc(OC[C@H]3CCCNC3)c21 [GSK-690693] | 119% | decrease | increase | S6d7 Nkx6.1 + /Isl1+ (human stem cells [3]; 10% AA (10 ng/mL Activin A) plus the compound(s) at Stage 1, day 7 of Stage 6): 34.8%; Markers on S6d7 Isl1 + /Nkx6.1+ (human stem cells [3]; Stage 6 Regimen 1): 34.8; Markers on S6d7 Isl1 + /Nkx6.1− (human stem cells [3]; Stage 6 Regimen 1): 8.17; Markers on S6d7 Isl1 + /Nkx6.1+ (human stem cells [3]; Stage 6 Regimen 2): 36.3; Markers on S6d7 Isl1 + /Nkx6.1− (human stem cells [3]; Stage 6 Regimen 2): 8.17; S3C Pdx1 (human stem cells [4]; [8]): 57.5 and 91.1 and 89.4; S3C Pdx1 + /Cdx2+ (human stem cells [4]; [9]): 6.70%; S3C Pdx1 + /Sox2+ (human stem cells [4]; [9]): 37.3%; S5C Nkx6.1+/Isl1+ (human stem cells [5]; [8]): 31.1 and 35.6 and 28.5; S5C Nkx6.1+/Isl1+ (human stem cells [5]; [9]): 28.5%; S1C Sox17+/Oct4− (human stem cells [6]; 0.1 μM GSK for 3 days of Stage 1 plus 10% AA (10 ng/mL Activin A), Runs 2-5, listed as GSK): 69 and 84.9 and 91.6 and 60; S1C Sox17 + /Oct4+ (human stem cells [6]; [9]): 2.86%; S1C Sox17+/Oct4− (human stem cells [6]; [9]): 91.6%; St5C yield (human stem cells [7]): 3.02e+06 mL⁻¹ and 5.4416e+06 mL⁻¹ |
| not to induce | COc1ncc(-c2ccc3nccc(-c4ccnnc4)c3c2)cc1NS(=O)(=O)c1ccc(F)cc1F [Omipalisib] | 75% | decrease | increase |  |
